Test results as given in EP1432683B9 (Recordati Ireland Limited, priority 2001, dated 2003).
Structures can show the parent of a compound that is named as a salt.

Columns and labels:
[1] = oral administration; cited from earlier work
[2] = Solubility of crude forms compared with other crude forms; format: physicochemical

COC(=O)C1=C(C)NC(C)=C(C(=O)OC(C)(C)CN(C)CCC(c2ccccc2)c2ccccc2)C1c1cccc([N+](=O)[O-])c1 (centres unmarked) [Lercanidipine, methyl 1,1,N-trimethyl-N-(3,3-diphenylpropyl)-2-aminoethyl 1,4-dihyaro-2,6-dimethyl-4-(3-nitrophenyl)pyridine-3,5-dicarboxylate]
peak plasma levels occurring (time following dosing) [1]: 2 to 3 h

COC(=O)C1=C(C)NC(C)=C(C(=O)OC(C)(C)CN(C)CCC(c2ccccc2)c2ccccc2)C1c1cccc([N+](=O)[O-])c1 (centres unmarked) [Form (A), lercanidipine hydrochloride]
solubility compared to other crude forms previously reported [2]: higher solubility
